# Test results taken from patent publication US5306824A, “Biotinylated isocoumarins” (Georgia Tech Research Corporation, priority 1992, dated 1994).
# Legend:
# [1] = biological target: PPE (Sus scrofa, UniProt P00772); assay: Elution of inhibited PPE from avidin-agarose column with NH2OH; type: biochemical, porcine
# Description: Elution of inhibited PPE by 7-[6-(6-biotinylaminocaproyl)aminocaproyl]amino-4-chloro-3-methoxyisocoumarin from avidin-agarose column with NH2 OH.
# PPE (1 mg, […]) was inhibited by biotinylated isocoumarin (0.5 mmole) in 0.1M Hepes, 0.5M NaCl, pH 7.5 buffer at 25° C. for 10 min, 7% of residual enzyme activity was found. Excess of inhibitors was removed by Sephadex G-25 column and the inhibited PPE was eluted with 0.1M acetate, 0.5M NaCl, pH 5.0 buffer and had 16% of enzyme activity. This inhibited enzyme solution was then applied on the avidin-agarose column and 34% of protein went through (measured by optical density at 280 nm). The column was washed with pH 5.0 acetate buffer, then eluted with 0.1M Hepes, 0.5M NaCl, and 0.5M NH2 OH, pH 7.5 buffer and 37% of protein was eluted out (measured by OD280) from the column. In these protein fractions, 40% of PPE activity was detected.
# [2] = biological target: T1, human recombinant (HR) granzyme A (Homo sapiens, UniProt P12544); assay: Inactivation of human recombinant granzyme A by biotin-isocoumarins (incubation method); type: biochemical; settings: inhibitor 160-210 μM, pH 7.5, 25° C.
# T1 sequence (P12544 29-262): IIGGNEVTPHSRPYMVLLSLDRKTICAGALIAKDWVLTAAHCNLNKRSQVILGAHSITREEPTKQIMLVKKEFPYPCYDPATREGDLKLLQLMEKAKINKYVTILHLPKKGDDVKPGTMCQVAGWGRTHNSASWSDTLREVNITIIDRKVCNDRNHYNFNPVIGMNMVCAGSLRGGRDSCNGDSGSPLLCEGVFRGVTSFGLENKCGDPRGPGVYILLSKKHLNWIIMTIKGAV
# Description: (§1) Inactivation rates of serine proteases by substituted isocoumarins were measured by the incubation method. An aliquot of inhibitor (25 or 50 μl) in Me2 SO was added to a buffered enzyme solution (0.01-2.3 μM) to initiate the inactivation. Aliquots (50-100 μl) were withdrawn at various intervals and the residual enzymatic activity was measured. Me2 SO concentration in the reaction mixture was 8-12% (v/v). 0.1M Hepes, 0.5M NaCl, pH 7.5 buffer was utilized for the assays of chymotrypsin, cathepsin G (cat G), porcine pancreatic elastase (PPE), human leukocyte elastase (HLE) and rat granule serine proteases. 0.1M Hepes, 0.01M CaCl2, pH 7.5 buffer was utilized for the assays of trypsin and human recombinant (HR) granzyme A. The inhibitor concentrations are shown in the Tables I and II. Peptide nitroanilides with appropriate sequence were used as substrates for various serine proteases. All peptide 4-nitroanilide hydrolysis was measured at 410 nm (ε410 =8800M^-1 cm^-1; Erlanger et al., Arch. Biochem. Biophys. 95, pp 271-278 (1961), incorporated herein by reference). Peptide thioester hydrolysis rates were measured with assay mixtures containing 4,4'-dithiodipyridine (ε324 =19800M^-1 cm^-1; Grasetti & Murray, Arch. Biochem. Biophys. 119, pp. 41-49 (1967), incorporated herein by reference). First order inactivation rate constant (kobs) were obtained from plots of ln (vt /vo) vs time, and the correlation coefficients were greater than 0.98.
# (§2) ^a Inhibition was measured in 0.1 M Hepes, 0.5 M NaCl (or 0.01 M
# (§3) CaCl2), pH 7.5 buffer, 5-10% Me2 SO and at 25° C.
# ZGlu-Phe-Arg-NA (0.032 mM) was a substrate for trypsin. ZArg-SBzl (0.120
# mM) was a substrate for human recombinant (HR) granzyme A.
# ^g Inhibitor concentrations were 160-210 μM.
# (§4) ^h No inhibition after 10 min of incubation of inhibitor and enzyme.
# (§5) ^i Percentage of inhibition after 10 min of incubation of inhibitor
# [3] = biological target: T2, human leukocyte elastase (HLE) (Homo sapiens, UniProt P08246); assay: Inactivation of human leukocyte elastase by biotin-isocoumarins (incubation method); type: biochemical; settings: inhibitor 1.6-210 μM; pH 7.5, 25° C.; read-out: kobs/[I] HLE
# T2 sequence (P08246 30-267): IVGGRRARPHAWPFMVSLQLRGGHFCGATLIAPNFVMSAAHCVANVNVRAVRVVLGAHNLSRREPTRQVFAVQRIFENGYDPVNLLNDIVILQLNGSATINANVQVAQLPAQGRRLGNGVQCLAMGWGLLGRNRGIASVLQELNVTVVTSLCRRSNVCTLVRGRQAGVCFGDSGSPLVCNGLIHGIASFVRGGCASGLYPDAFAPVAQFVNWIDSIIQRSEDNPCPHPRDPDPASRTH
# Description: as §1, §2, §3
# (§6) G. MeOSuc-Ala-Ala-Pro-Val-NA (0.24-0.47 mM) and SucAla-Ala-Ala-NA
# (0.29-0.48 mM) were used as the substrate for HLE and PPE respectively.
# ^d Inhibitor concentrations were 1.6-210 μM.
# [4] = biological target: T3, cathepsin G (cat G) (Homo sapiens, UniProt P08311); assay: Inactivation of cathepsin G by biotin-isocoumarins (incubation method); type: biochemical; settings: inhibitor 75-400 μM, pH 7.5, 25° C.
# T3 sequence (P08311 21-255): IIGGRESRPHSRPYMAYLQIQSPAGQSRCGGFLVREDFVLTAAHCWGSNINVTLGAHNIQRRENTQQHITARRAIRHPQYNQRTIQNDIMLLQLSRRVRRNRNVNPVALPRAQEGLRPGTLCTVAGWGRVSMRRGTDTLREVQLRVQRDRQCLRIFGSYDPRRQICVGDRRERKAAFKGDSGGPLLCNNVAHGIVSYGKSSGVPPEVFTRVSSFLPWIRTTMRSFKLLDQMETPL
# Description: as §1, §2, §3
# SucVal-Pro-NA (0.48 mM) was used as the substrate for chymotrypsin and ca
# as §6
# ^c Inhibitor concentrations were 75-400 μM.
# as §4, §5
# PPE, sequence (P00772 27-266): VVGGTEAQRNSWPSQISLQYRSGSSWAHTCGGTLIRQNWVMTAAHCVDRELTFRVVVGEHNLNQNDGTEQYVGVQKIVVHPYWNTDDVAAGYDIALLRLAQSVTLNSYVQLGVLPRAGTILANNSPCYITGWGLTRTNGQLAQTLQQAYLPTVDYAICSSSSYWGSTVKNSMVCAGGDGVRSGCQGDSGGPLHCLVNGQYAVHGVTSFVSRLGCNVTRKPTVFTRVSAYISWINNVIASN
"enzyme activity of inhibited PPE after Sephadex G-25 removal of excess inhibitor ([1]; eluted with 0.1M acetate, 0.5M NaCl, pH 5.0) [%]",PPE activity detected in eluted protein fractions ([1]; fractions eluted with 0.5M NH2OH) [%],"residual enzyme activity of PPE after inhibition ([1]; pH 7.5 buffer, 25° C., 10 min) [%]",Percentage of inhibition of HR Granzyme A after 10 min of incubation of inhibitor and enzyme [2] [%],kinact/KI [3] [M⁻¹ s⁻¹],"kinact/KI ([4]; NI = no inhibition after 10 min of incubation, read-out: kobs/[I] Cat. G) [M⁻¹ s⁻¹]",Percentage of inhibition of Cat. G after 10 min of incubation of inhibitor and enzyme ([4]; 10 min) [%],SMILES
16,40,7,5,37500,2.2,–,"COc1oc(=O)c2cc(NC(=O)CCCCCNC(=O)CCCCCNC(=O)CCCCC3SCC4NC(=O)NC43)ccc2c1Cl (stereo not shown) [Compound 6, 7-[6-(6-biotinylaminocaproyl)aminocaproyl]-amino-4-chloro-3-methoxyisocoumarin]"
–,–,–,–,230,–,–,"O=C(CCCCCNC(=O)CCCCC1SCC2NC(=O)NC21)NCCCCCC(=O)Nc1ccc2c(Cl)c(OCCc3ccccc3)oc(=O)c2c1 (stereo not shown) [Compound 7, 7-[6-(6-biotinylaminocaproyl)aminocaproyl]-amino-4-chloro-3-(2-phenylethoxy)-isocoumarin]"
–,–,–,18,6.6,–,19,"O=C(CCCCC1SCC2NC(=O)NC21)NCCNC(=O)CNC(=O)Nc1ccc2c(Cl)c(OCCc3ccccc3)oc(=O)c2c1 (stereo not shown) [Compound 8, 7-biotin-NH(CH2)2 NH--COCH2 NHCONH-4-chloro-3-(2-phenylethoxy)isocoumarin]"
